Source: PubChem BioAssay (NCI)
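In this assay, cells in 96-well plates receive the compound at five concentrations for 48 hours. Endpoints are linearly interpolated between the surrounding concentrations. The concentration for 50% growth inhibition is given as GI50. TGI: total growth inhibition.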

Key:
Test in all cases: NCI-60 cell line screen, 48 h
786-0 renal = system: 786-0 renal
A549 NSCLC = system: A549 NSCLC
ACHN renal = system: ACHN renal
BT-549 breast = system: BT-549 breast
CCRF-CEM leukemia = system: CCRF-CEM leukemia
COLO 205 colon = system: COLO 205 colon
DU-145 prostate = system: DU-145 prostate
HCC-2998 colon = system: HCC-2998 colon
HCT-116 colon = system: HCT-116 colon
HCT-15 colon = system: HCT-15 colon
HL-60(TB) leukemia = system: HL-60(TB) leukemia
HOP-62 NSCLC = system: HOP-62 NSCLC
HOP-92 NSCLC = system: HOP-92 NSCLC
HS 578T breast = system: HS 578T breast
HT29 colon = system: HT29 colon
IGROV1 ovarian = system: IGROV1 ovarian
K-562 leukemia = system: K-562 leukemia
KM12 colon = system: KM12 colon
LOX IMVI melanoma = system: LOX IMVI melanoma
M14 melanoma = system: M14 melanoma
MALME-3M melanoma = system: MALME-3M melanoma
MCF7 breast = system: MCF7 breast
MDA-MB-231 breast = system: MDA-MB-231 breast
MDA-MB-435 = system: MDA-MB-435
MOLT-4 leukemia = system: MOLT-4 leukemia
NCI-H226 lung = system: NCI-H226 lung
NCI-H23 lung = system: NCI-H23 lung
NCI-H460 lung = system: NCI-H460 lung
NCI-H522 lung = system: NCI-H522 lung
NCI/ADR-RES ovarian = system: NCI/ADR-RES ovarian
OVCAR-3 ovarian = system: OVCAR-3 ovarian
OVCAR-4 ovarian = system: OVCAR-4 ovarian
OVCAR-5 ovarian = system: OVCAR-5 ovarian
OVCAR-8 ovarian = system: OVCAR-8 ovarian
PC-3 prostate = system: PC-3 prostate
RPMI-8226 leukemia = system: RPMI-8226 leukemia
RXF 393 renal = system: RXF 393 renal
SF-268 CNS = system: SF-268 CNS
SF-295 CNS = system: SF-295 CNS
SF-539 CNS = system: SF-539 CNS
SK-MEL-2 melanoma = system: SK-MEL-2 melanoma
SK-MEL-28 melanoma = system: SK-MEL-28 melanoma
SK-MEL-5 melanoma = system: SK-MEL-5 melanoma
SK-OV-3 ovarian = system: SK-OV-3 ovarian
SN12C renal = system: SN12C renal
SNB-19 CNS = system: SNB-19 CNS
SNB-75 CNS = system: SNB-75 CNS
SR leukemia = system: SR leukemia
SW-620 colon = system: SW-620 colon
T-47D breast = system: T-47D breast
TK-10 renal = system: TK-10 renal
U251 CNS = system: U251 CNS
UACC-257 melanoma = system: UACC-257 melanoma
UACC-62 melanoma = system: UACC-62 melanoma
UO-31 renal = system: UO-31 renal

SMILES: CCC(C)CC(C)C(=O)c1c(O)ccn(O)c1=O (stereo not given)
- GI50 (786-0 renal): 3.65 µM
- TGI (786-0 renal): > 100 µM
- GI50 (A549 NSCLC): 1.78 µM
- TGI (A549 NSCLC): 36.3 µM
- GI50 (ACHN renal): 0.775 µM
- TGI (ACHN renal): > 100 µM
- GI50 (BT-549 breast): 2.56 µM
- TGI (BT-549 breast): 37.9 µM
- GI50 (CCRF-CEM leukemia): 0.6 µM
- TGI (CCRF-CEM leukemia): > 100 µM
- GI50 (COLO 205 colon): 38.3 µM
- TGI (COLO 205 colon): > 100 µM
- GI50 (DU-145 prostate): 2.1 µM
- TGI (DU-145 prostate): > 100 µM
- GI50 (HCC-2998 colon): 6 µM
- TGI (HCC-2998 colon): > 100 µM
- GI50 (HCT-116 colon): 1.08 µM
- TGI (HCT-116 colon): > 100 µM
- GI50 (HCT-15 colon): 0.46 µM
- TGI (HCT-15 colon): > 100 µM
- GI50 (HL-60(TB) leukemia): 0.473 µM
- TGI (HL-60(TB) leukemia): 12.6 µM
- GI50 (HOP-62 NSCLC): 1.98 µM
- TGI (HOP-62 NSCLC): > 100 µM
- GI50 (HOP-92 NSCLC): 0.686 µM
- TGI (HOP-92 NSCLC): 33.7 µM
- GI50 (HS 578T breast): 3.08 µM
- TGI (HS 578T breast): > 100 µM
- GI50 (HT29 colon): 27.2 µM
- TGI (HT29 colon): > 100 µM
- GI50 (IGROV1 ovarian): 3.18 µM
- TGI (IGROV1 ovarian): 28.1 µM
- GI50 (K-562 leukemia): 0.631 µM
- TGI (K-562 leukemia): > 100 µM
- GI50 (KM12 colon): 3.37 µM
- TGI (KM12 colon): > 100 µM
- GI50 (LOX IMVI melanoma): 0.804 µM
- TGI (LOX IMVI melanoma): > 100 µM
- GI50 (M14 melanoma): 1.61 µM
- TGI (M14 melanoma): 15 µM
- GI50 (MALME-3M melanoma): 1.44 µM
- TGI (MALME-3M melanoma): 10.1 µM
- GI50 (MCF7 breast): 3.09 µM
- TGI (MCF7 breast): > 100 µM
- GI50 (MDA-MB-231 breast): 1.04 µM
- TGI (MDA-MB-231 breast): > 100 µM
- GI50 (MDA-MB-435): 1.87 µM
- TGI (MDA-MB-435): > 100 µM
- GI50 (MOLT-4 leukemia): 1.06 µM
- TGI (MOLT-4 leukemia): 17.6 µM
- GI50 (NCI-H226 lung): 15.8 µM
- TGI (NCI-H226 lung): 75.3 µM
- GI50 (NCI-H23 lung): 1.98 µM
- TGI (NCI-H23 lung): > 100 µM
- GI50 (NCI-H460 lung): 0.447 µM
- TGI (NCI-H460 lung): 11.6 µM
- GI50 (NCI-H522 lung): 2.46 µM
- TGI (NCI-H522 lung): > 100 µM
- GI50 (NCI/ADR-RES ovarian): 0.395 µM
- TGI (NCI/ADR-RES ovarian): 5.15 µM
- GI50 (OVCAR-3 ovarian): 0.415 µM
- TGI (OVCAR-3 ovarian): 45.3 µM
- GI50 (OVCAR-4 ovarian): 0.561 µM
- TGI (OVCAR-4 ovarian): > 100 µM
- GI50 (OVCAR-5 ovarian): 23.7 µM
- TGI (OVCAR-5 ovarian): > 100 µM
- GI50 (OVCAR-8 ovarian): 0.626 µM
- TGI (OVCAR-8 ovarian): > 100 µM
- GI50 (PC-3 prostate): 1.33 µM
- TGI (PC-3 prostate): > 100 µM
- GI50 (RPMI-8226 leukemia): 0.901 µM
- TGI (RPMI-8226 leukemia): 36.8 µM
- GI50 (RXF 393 renal): 2.33 µM
- TGI (RXF 393 renal): > 100 µM
- GI50 (SF-268 CNS): 1.29 µM
- TGI (SF-268 CNS): 45.3 µM
- GI50 (SF-295 CNS): 5.22 µM
- TGI (SF-295 CNS): 49.6 µM
- GI50 (SF-539 CNS): 1.04 µM
- TGI (SF-539 CNS): 8.08 µM
- GI50 (SK-MEL-2 melanoma): 3.63 µM
- TGI (SK-MEL-2 melanoma): 48.6 µM
- GI50 (SK-MEL-28 melanoma): 2.27 µM
- TGI (SK-MEL-28 melanoma): > 100 µM
- GI50 (SK-MEL-5 melanoma): 1.53 µM
- TGI (SK-MEL-5 melanoma): 6.1 µM
- GI50 (SK-OV-3 ovarian): 6.2 µM
- TGI (SK-OV-3 ovarian): > 100 µM
- GI50 (SN12C renal): 1.38 µM
- TGI (SN12C renal): 16.2 µM
- GI50 (SNB-19 CNS): 1.19 µM
- TGI (SNB-19 CNS): > 100 µM
- GI50 (SNB-75 CNS): 4.12 µM
- TGI (SNB-75 CNS): > 100 µM
- GI50 (SR leukemia): 0.498 µM
- TGI (SR leukemia): 18.3 µM
- GI50 (SW-620 colon): 0.607 µM
- TGI (SW-620 colon): > 100 µM
- GI50 (T-47D breast): 4.12 µM
- TGI (T-47D breast): 76.9 µM
- GI50 (TK-10 renal): 17.8 µM
- TGI (TK-10 renal): > 100 µM
- GI50 (U251 CNS): 2.14 µM
- TGI (U251 CNS): > 100 µM
- GI50 (UACC-257 melanoma): 2.52 µM
- TGI (UACC-257 melanoma): 8.38 µM
- GI50 (UACC-62 melanoma): 2.27 µM
- TGI (UACC-62 melanoma): 6.74 µM
- GI50 (UO-31 renal): 0.376 µM
- TGI (UO-31 renal): 4.31 µM
